Results published in patent publication US5378475A, “Sustained release drug delivery devices” (priority 1991, dated 1995).

How the values were obtained:
[1] = J. Ocular Pharmacol. 1988;1062:231; cited from earlier work
[2] = J. Ocular Pharmacol. 1988;1062:231; cited from earlier work; remark: listed apart in the source
[3] = Diffusion/release of 5-FU through PVA membranes; format: in vitro ADME; settings: heat treated PVA membrane
Description: Subconjunctival administration of 5-FU as an adjunct to filtration surgery in high risk glaucoma patients is attended by the necessity of multiple subconjunctival injections and the potentially serious complications due to delayed wound healing. Alternative delivery systems have been proposed including liposomes, topical administration, and sustained release polymers. […] Therefore, the rate of release was further decreased by layering EVA within the PVA to create a membrane system that was 6×8 mm in size.

CMV retinitis [4] = settings: intravenous; cited from earlier work
CMV retinitis [5] = settings: intravitreal injections of 200 to 400 μg once or twice weekly; cited from earlier work
rabbit eye = test system: rabbit eye; design: species or system New Zealand albino rabbits; settings: in vivo
Protocol: New Zealand albino rabbits weighing 1.5 to 2 kg were used in this study. Anesthesia was provided with intramuscular ketamine HCl (40 mg/kg), attopine sulfate (0.1 mg/kg), xylazine HCl (10 mg/kg) and topical proparacaine (0.5%).
A baseline photopic electroretinogram (ERG) was recorded preoperatively in each rabbit using a corneal contact lens. A Gansfeld stimulus was used to improve standardization of results. After sedation, the rabbits were placed inside a Gansfeld stimulator 20 cm away from the flash unit. Flash (cone and rod response) and flicker (cone response) ERGs were done under light adapted conditions. Graphic measurements were recorded, and the waveform amplitudes and implicit times were calculated.
This was done because the pars plana of the New Zealand albino rabbit is poorly developed and it was therefore necessary to implant the devices and take vitreous samples through retina. The ERG was repeated four weeks later immediately prior to insertion of the device. […]
Vitreous samples were periodically removed using a 20 gauge needle on a tuberculin syringe. […] After removal, vitreous samples were stored at -60° C until analyzed by HPLC. […]
Vitreous samples were not collected from the treated eyes. […] In this group, devices were removed from the eyes and the amount of GCV still present determined by HPLC. […]

[6] = Device/drug stability after heat treatment (Example 2); format: physicochemical
rabbit retina = experiment: 6 mg bolus dose of intravitreal GCV: retinal toxicity in rabbit (Example 3); format: in vivo, New Zealand albino rabbits; settings: 6 mg bolus dose intravitreal, two eyes
AIDS patients = settings: human, in vivo; cited from earlier work

O=c1[nH]cc(F)c(=O)[nH]1 [5-FU, 5-fluorouracil]
release of 5-FU through PVA [1]: PVA provided a linear release
permeability of EVA to 5-FU [2]: EVA was impermeable to 5-FU
effect of heat treating the PVA membrane on 5-FU release rates [3]: release rates could be markedly decreased

Nc1nc(O)c2ncn(COC(CO)CO)c2n1 [GCV, ganciclovir]
bone marrow toxicity (CMV retinitis [4]): bone marrow toxicity limits its usefulness
effect on CMV retinitis in AIDS patients (CMV retinitis [4]): effective in the treatment of CMV retinitis in AIDS patients
effect on CMV retinitis (CMV retinitis [5]): temporary remission of CMV retinitis in AIDS patients
observable retinal toxicity (rabbit eye): No observable retinal toxicity
drug loss or decomposition after heat treatment of ganciclovir pellet ([6]; HPLC analysis): no apparent drug loss or decomposition
near IR after heat treatment ([6]; individual component): no change after heat treatment
toxicity by indirect ophthalmoscopy (rabbit retina): no evidence of toxicity

Cc1cn([C@H]2C[C@H](N=[N+]=[N-])[C@@H](CO)O2)c(=O)[nH]c1=O [zidovudine]
effect in AIDS patients (AIDS patients): prolong life and improve the immune function in AIDS patients
